Laboratory results from patent US9029325B2, “Amylin analogues and pharmaceutical compositions thereof” (Novo Nordisk A/S, priority 2011, dated 2015).
Where two headings read alike, the source gives them in different places. Starred links: 1 amine or outer side, 2 acyl side, 3 side chain; linkers in the order of their positions; H or OH if unused. Positions of bridges follow the written chain, without caps; N, C: chain ends. Residues, ends and D or L forms follow the SMILES beside them. Groups on a side chain read outwards from the residue. *: point of attachment. C20 diacid = O=C(O)CCCCCCCCCCCCCCCCCCC(=O)*; γGlu = O=C(O)[C@H](CCC(=O)[*:2])N[*:1]

Legend:
[1] = Assay (I) efficacy testing on appetite (food intake), ad libitum fed rat model; type: in vivo, Sprague Dawley (SD) rats; details: 3 nmol/kg
Outline: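 Single ip, po or sc dosing (0.01-3 mg/kg, by body weight) at the start of the dark phase, in individually housed Sprague Dawley rats of 200-250 g with free food and water. Intake was logged per rat each hour to 7 h, then at 24 h (occasionally 48 h), against a vehicle group; outliers removed by Grubbs test.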

[2] = target: T1, human amylin receptor (amylin 3(a) receptor: human calcitonin receptor + RAMP-3) (Homo sapiens, UniProt O60896+P30988); experiment: Assay (II)a functional human amylin receptor CRE-luciferase assay; type: cell-based; details: Table 11
T1 construct: expressed in transfected cells
T1 sequence (P30988 25-474): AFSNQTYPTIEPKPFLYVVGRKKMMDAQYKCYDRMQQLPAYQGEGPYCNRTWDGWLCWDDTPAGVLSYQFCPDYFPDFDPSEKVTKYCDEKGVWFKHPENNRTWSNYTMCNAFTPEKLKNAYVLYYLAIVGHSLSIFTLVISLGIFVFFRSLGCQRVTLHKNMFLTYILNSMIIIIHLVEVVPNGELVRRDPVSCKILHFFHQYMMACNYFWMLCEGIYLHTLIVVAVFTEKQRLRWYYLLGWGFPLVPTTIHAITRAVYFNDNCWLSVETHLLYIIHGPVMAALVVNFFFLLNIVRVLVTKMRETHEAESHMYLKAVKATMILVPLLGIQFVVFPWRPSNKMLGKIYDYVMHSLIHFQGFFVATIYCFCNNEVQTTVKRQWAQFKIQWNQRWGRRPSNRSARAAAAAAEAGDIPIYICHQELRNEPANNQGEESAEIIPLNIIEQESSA
T1 sequence (O60896 24-148 partner): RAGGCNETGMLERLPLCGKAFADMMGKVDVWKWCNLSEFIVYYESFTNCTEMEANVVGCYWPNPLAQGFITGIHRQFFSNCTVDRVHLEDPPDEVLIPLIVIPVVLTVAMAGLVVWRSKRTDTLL
Description: (§1) Activation of calcitonin and amylin (coexpression of calcitonin receptor and receptor activity modifying proteins (RAMP)) receptors lead to increased intracellular concentrations of cAMP. Consequently, transcription is activated by promoters containing multiple copies of the cAMP response element (CRE). It is thus possible to measure amylin activity by the use of a CRE luciferase reporter gene introduced into BHK cells also expressing calcitonin or amylin receptors.
(§2) A BHK570 cell line was stably transfected with the human calcitonin receptor and a CRE-responsive luciferase reporter gene. The cell line was further transfected with RAMP-3, using standard methods. This turns the calcitonin receptor into an amylin 3(a) receptor. Methotrexate, Neomycin, and Hygromycin are selection markers for luciferase, the calcitonin receptor, and RAMP-3, respectively.
(§3) To perform activity assays, BHK calcitonin (a) receptor- or amylin 3(a)-receptor/CRE-luc cells were seeded in white 96 well culture plates at a density of about 20.000 cells/well. […] After incubation overnight at 37° C. and 5% CO2, the growth medium was replaced by 50 μl/well assay medium (DMEM (without phenol red), Glutamax™, 10% FBS, and 10 mM Hepes, pH 7.4). Further, 50 μl/well of standard or sample in assay buffer were added. […] Finally, luminescence was measured on a TopCounter (Packard) in SPC (single photon counting) mode.

[3] = target: T2, human calcitonin receptor (CTa receptor) (Homo sapiens, UniProt P30988); experiment: Assay (II)a functional human calcitonin receptor CRE-luciferase assay; type: cell-based; details: Table 11
T2 construct: expressed in transfected cells
T2 sequence (P30988 25-474): T1 sequence (P30988 25-474)
Description: as §1, §2, §3

[4] = target: T3, rat amylin 3(a) receptor (rat calcitonin(a) receptor + rat RAMP3) (Rattus norvegicus, UniProt P32214+Q9JJ73); experiment: Assay (II)b functional rat amylin receptor cAMP FlashPlate assay; type: cell-based; details: Table 11
T3 construct: expressed in transfected cells; host or cells: BHK tk'ts 13 (transient, FuGENE 6)
T3 sequence (P32214 25-479 isoform P32214-2 limits assumed): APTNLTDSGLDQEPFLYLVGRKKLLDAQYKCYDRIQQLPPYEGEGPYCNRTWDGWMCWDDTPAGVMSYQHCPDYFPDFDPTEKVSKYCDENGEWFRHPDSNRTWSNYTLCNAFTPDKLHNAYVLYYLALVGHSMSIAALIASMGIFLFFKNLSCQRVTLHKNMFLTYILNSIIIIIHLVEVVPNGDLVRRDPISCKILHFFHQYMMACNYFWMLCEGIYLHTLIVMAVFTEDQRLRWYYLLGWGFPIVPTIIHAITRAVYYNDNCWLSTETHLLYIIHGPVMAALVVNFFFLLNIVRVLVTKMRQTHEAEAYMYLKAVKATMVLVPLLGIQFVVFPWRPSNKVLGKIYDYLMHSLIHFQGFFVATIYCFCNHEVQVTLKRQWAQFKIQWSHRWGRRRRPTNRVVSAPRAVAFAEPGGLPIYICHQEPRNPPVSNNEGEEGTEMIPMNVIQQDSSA
T3 sequence (Q9JJ73 23-147 partner): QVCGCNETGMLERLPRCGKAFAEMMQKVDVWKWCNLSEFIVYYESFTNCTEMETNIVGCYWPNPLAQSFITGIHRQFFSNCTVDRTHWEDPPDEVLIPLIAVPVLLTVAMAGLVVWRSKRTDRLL
Description: (§4) Activation of calcitonin and amylin (coexpression of calcitonin receptor and receptor activity modifying proteins (RAMP)) receptors lead to increased intracellular concentrations of cAMP. In order to quantify the cAMP levels in transiently transfected cells the Adenylyl Cyclase Activation FlashPlate® Assay from Perkin Elmer was used. The basic principle of the FlashPlate® Assay is a competition between radioactive and non-radioactive cAMP generated by the cells for a fixed number of binding sites.
(§5) BHK tk′ts 13 cells were transiently transfected with either rat calcitonin (a) receptor or amylin 3 (a) receptor (rat calcitonin(a) receptor+ rat RAMP3) using FuGENE® 6 (Roche), according to the manufacturers recommendations.
(§6) 24 hours after transient transfection the cells (rat calcitonin(a)—or rat amylin 3(a)—receptor cells) were added (100.000 cells/well) to the 96 well FlashPlates® with samples or standard in FlashPlate stimulation buffer with IBMX and incubated for 30 min. Detection mix was created according to manufacturers protocol and scintillation measured after 3 h of incubation on TopCounter™ (Packard).

[5] = target: T4, rat calcitonin (a) receptor (Rattus norvegicus, UniProt P32214); experiment: Assay (II)b functional rat calcitonin receptor cAMP FlashPlate assay; type: cell-based; details: Table 11; read-out: CTa receptor rat EC50
T4 construct: expressed in transfected cells; host or cells: BHK tk'ts 13 (transient, FuGENE 6)
T4 sequence (P32214 25-479 isoform P32214-2 limits assumed): T3 sequence (P32214 25-479 isoform P32214-2 limits assumed)
Description: as §4, §5, §6

[6] = Assay (IV) determination of solubility; type: physicochemical
Experimental: The polypeptide was dissolved in water at −500 nmol/ml and mixed 1:1 with a series of buffers (100 mM glycylglycine pH 3.0, 100 mM glycylglycine pH 4.0, 100 mM glycylglycine pH 5.0, 100 mM bistrispropane pH 6.0, 100 mM bistrispropane pH 6.5, 100 mM bistrispropane pH 7.0, 100 mM bistrispropane pH 7.5, 100 mM bistrispropane pH 8.0). After 18 hours at room temperature the samples were centrifuged and the polypeptide concentration determined by UPLC.

## CC[C@H](C)[C@H](NC(=O)[C@@H]1CCCN1C(=O)CNC(=O)[C@H](Cc1ccccc1)NC(=O)[C@H](CC(N)=O)NC(=O)[C@H](CC(N)=O)NC(=O)[C@H](CO)NC(=O)[C@H](CO)NC(=O)[C@H](Cc1c[nH]cn1)NC(=O)[C@H](Cc1c[nH]cn1)NC(=O)[C@H](CC(C)C)NC(=O)[C@H](Cc1ccccc1)NC(=O)[C@H](CCC(=O)O)NC(=O)[C@H](C)NC(=O)[C@H](CC(C)C)NC(=O)[C@H](CCCNC(=N)N)NC(=O)[C@H](CCC(N)=O)NC(=O)[C@@H](NC(=O)[C@H](C)NC(=O)[C@@H]1CSSC[C@H](NC(=O)[C@@H](N)CCCCNC(=O)CC[C@H](NC(=O)CCCCCCCCCCCCCCCCCCC(=O)O)C(=O)O)C(=O)N[C@@H](CC(N)=O)C(=O)N[C@@H]([C@@H](C)O)C(=O)N[C@@H](C)C(=O)N[C@@H]([C@@H](C)O)C(=O)N1)[C@@H](C)O)C(=O)N[C@@H](CC(C)C)C(=O)N1CCC[C@H]1C(=O)N1CCC[C@H]1C(=O)N[C@H](C(=O)N[C@@H](CC(N)=O)C(=O)N[C@H](C(=O)NCC(=O)N[C@@H](CO)C(=O)N[C@@H](Cc1c[nH]cn1)C(=O)N[C@H](C(=O)N[C@@H](Cc1ccc(O)cc1)C(N)=O)[C@@H](C)O)C(C)C)[C@@H](C)O [compound 87] (H-K([γGlu-C20 diacid])CNTATCATQRLAEFLHHSSNNFGPILPPTNVGSHTY-NH2; disulfide 2-7 (inferred); C-terminus assumed)
[1]; 0-24 h
  Food intake reduction 0-24 h 3 nmol/kg (%): 66%
[1]; 24-48 h
  Food intake reduction 24-48 h 3 nmol/kg (%): 47%
[2]
  EC50: 0.142 nM
[3]
  EC50: 0.228 nM
[4]
  EC50: 0.106 nM
[5]
  EC50: 0.437 nM
[6]; pH 3.0, read-out: Solubility (μM) pH 3.0
  solubility at 18 h: > 200 µM
[6]; pH 4.0, read-out: Solubility (μM) pH 4.0
  solubility at 18 h: > 200 µM
[6]; pH 5.0, read-out: Solubility (μM) pH 5.0
  solubility at 18 h: > 200 µM
[6]; pH 6.0, read-out: Solubility (μM) pH 6.0
  solubility at 18 h: > 200 µM
[6]; pH 6.5, read-out: Solubility (μM) pH 6.5
  solubility at 18 h: > 200 µM
[6]; pH 7.0, read-out: Solubility (μM) pH 7.0
  solubility at 18 h: > 200 µM
[6]; pH 7.5, read-out: Solubility (μM) pH 7.5
  solubility at 18 h: > 200 µM
[6]; pH 8.0, read-out: Solubility (μM) pH 8.0
  solubility at 18 h: > 200 µM
